Experimental data reported in patent publication US5663182A, “Antipsychotic method” (priority 1996, dated 1997).
Structures can show the parent of a compound that is named as a salt.

Columns and labels:
[1] = test system: psychiatric patients suffering from schizophrenia; conditions: cited from earlier work
muscarinic receptors = experiment: 3H-oxotremorine-M binding assay; conditions: 3 nM 3H-oxotremorine-M, rat cerebral cortical membranes, 15 min 25° C.; read-out: Inhibition of 3H-Oxo
Protocol: Each compound was tested to determine the affinity of the compound for the muscarinic receptors using the following procedure.
For each in vitro binding, male Sprague-Dawley (Harlan Sprague-Dawley, Indianapolis, Ind.) rats weighing from about 100 to about 150 grams each were sacrificed by decapitation. The brains were quickly removed and the cerebral cortex were dissected from the brain. The cerebral cortex tissue was homogenized in 10 volumes of 0.32 M sucrose and […] about 10 minutes at about 1000 x g. The supernatant was centrifuged at about 12,000 x g for about 10 minutes and the resulting pellet was resuspended in 20 mM tris-Cl, pH 7.4. The resuspended pellet was centrifuged again for about 10 minutes at about 50,000 x g. The resulting homogenate was preincubated for about 10 minutes at about 25° C. and centrifuged again for about 10 minutes at about 50,000 x g. The pellet was resuspended at 1 gram of pellet per 3 ml of buffer and frozen at about -80° C. until used.
The aforementioned homogenates mixture was incubated for about 15 minutes at about 25° C. and then the homogenates were filtered through glass filters (Whatman, GF/C) with vacuum. The filters were washed 3 times with about 2 ml of cold tris-Cl buffer, and placed in scintillation vials containing about 10 ml of scintillation fluid (Ready Protein+, Beckman, Fullerton, Calif.). Radioactivity trapped on the filters was determined by liquid scintillation spectrometry. Nonspecific binding was determined using 1 μM atropine. […] DeLean, A. et al. Am.

Rats = experiment: Conditioned avoidance behavior in rats; assay type: in vivo, rat; conditions: screening dose 3.0 mg/kg s.c. 30 min before session
Text: In a conditioned avoidance test, animals learn to respond during a conditioned stimulus in order to avoid mild shock presentation. A response during the conditioned stimulus is termed an avoidance respone, a response during shock is termed an escape response; a response failure is when the animal fails to respond during either the conditioned stimlus or the shock presentation and is indicative of motor impairment. […] Antipsychotic drugs decrease the percentage of avoidance responses without interfering with the ability of the animal to respond since the animals do emit escape responses. The percentage of response failures is considered a measure of motor impairment.
Rats were required to press a response lever in an experimental chamber in order to avoid or escape foot-shock. Each experimental session consisted of 50 trials. During each trial, the chamber was illuminated and a tone presented for a maximum of 10 sec. A response during the tone immediately terminated the tone and the houselight, ending the trial. In the absence of a response during the tone alone, tone+foot-shock (2.0 mA) was presented for a maximum of 10 sec. A response during shock presentation immediately terminated the shock, the tone and the houselight, ending the trial.
For drug screening, a dose of 3.0 mg/kg was administered s.c. 30 min before the start of the experimental session.

Row | SMILES | IC50 (muscarinic receptors) | Conditioned Avoidance % Avoidance Responses (Rats) | also measured
1 | Cc1cc2c(s1)Nc1ccc(F)cc1N=C2N1CCN(C)CC1 [flumezapine, 7-fluoro-2-methyl-10-(4-methyl-1-piperazinyl)-4H-thieno[2,3-b][1,5]-benzodiazepine] | – | – | incidence of raised enzyme levels (CPK, SGOT, SGPT) in treated patients ([1]; 17 patients treated, clinical trial terminated): unacceptably high incidence of raised enzyme levels
2 | CN1CCN(C2=Nc3cc(Cl)ccc3Nc3ccccc32)CC1 [clozapine] | – | – | agranulocytosis ([1]; reported for clinical use): cause agranulocytosis in some patients
3 | CCCOc1nsnc1[C@H]1CN2CCC[C@H]1C2 (relative stereo) [Compound 119, Exo-6-(3-propoxy-1,2,5-thiadiazol-4-yl)-1-azabicyclo[3.2.1]octane oxalate] | 0.9 nM | 29% | –
4 | O=C(CCCN1CCC(O)(c2ccc(Cl)cc2)CC1)c1ccc(F)cc1 [haloperidol] | – | – | extra pyramidal symptoms ([1]; reported for clinical use): high incidence of extra pyramidal symptoms
5 | Cn1nnnc1SCCCCSc1nsnc1C1CN2CCC1CC2 (centres unmarked) [Compound 106, oxalate] | 2.8 nM | 55% | –
6 | CCCCSc1nsnc1C1CN2CCCC1C2 (single isomer, unassigned) [Compound 112, (+)-Exo-6-(3-butylthio-1,2,5-thiadiazol-4-yl)-1-azabicyclo[3.2.1]octane (-) D-tartrate] | 0.6 nM | – | Conditioned Avoidance % Avoidance Responses (Rats; 3 mg/kg): 2%
7 | CCCSc1nsnc1C1CN2CCC1CC2.O=C(O)C(=O)O (centres unmarked) [Compound 53, 3-(3-Propylthio-1,2,5-thiadiazol-4-yl)-1-azabicyclo[2.2.2]octane oxalate] | 0.9 nM | 41% | –
8 | O=C(O)/C=C/C(=O)O.c1ccc(OCCSc2nsnc2C2CN3CCC2CC3)cc1 (centres unmarked) [Compound 102, 3-(3-(2-Phenoxyethylthio)-1,2,5-thiadiazol-4-yl)-1-azabicyclo[2.2.2]octane fumarate] | 4.5 nM | 3% | –
9 | Cc1nnc(SCCCCSc2nsnc2C2CN3CCC2CC3)s1 (centres unmarked) [Compound 107, oxalate] | 1 nM | 52% | –
10 | CCCCCSc1nsnc1[C@H]1CN2CCC[C@H]1C2 (relative stereo) [Compound 31, Exo-6-(3-pentylthio-1,2,5-thiadiazol-4-yl)-1-azabicyclo[3.2.1]octane oxalate] | 1.8 nM | 1% | –
